From the NIST ThermoML archive (doi:10.1021/je900596d)

Conditions: for mass density: 303.28 K, Fluid (supercritical or subcritical phases), Vibrating tube method

FC(F)=C(F)C(F)(F)F [hexafluoropropene]
Conditions | vapor or sublimation pressure [kPa]
303.22 K, Liquid, Closed cell (Static) method | 839.7

Conditions | mass density [kg/m3]
2.4 kPa | 0.14
4.4 kPa | 0.19
5.3 kPa | 0.25
7.7 kPa | 0.38
11 kPa | 0.59
12.7 kPa | 0.7
13.6 kPa | 0.71
14.5 kPa | 0.85
16.3 kPa | 0.86
17.2 kPa | 0.87
18.1 kPa | 1.01
22.7 kPa | 1.19
24.5 kPa | 1.4
26.4 kPa | 1.46
28.1 kPa | 1.59
30 kPa | 1.72
33.6 kPa | 1.94
37.2 kPa | 2.14
38.2 kPa | 2.2
40 kPa | 2.21
41.8 kPa | 2.46
43.6 kPa | 2.43
47.2 kPa | 2.81
50.8 kPa | 3.02
52.5 kPa | 3.04
56 kPa | 3.26
57.9 kPa | 3.38
59.7 kPa | 3.48
61.4 kPa | 3.61
63.1 kPa | 3.73
64.8 kPa | 3.84
66.5 kPa | 3.93
68.3 kPa | 3.99
73.4 kPa | 4.37
76 kPa | 4.49
78.6 kPa | 4.64
81.2 kPa | 4.8
83.8 kPa | 4.98
86.4 kPa | 5.18
88.9 kPa | 5.4
94.2 kPa | 5.64
96.9 kPa | 5.73
98.7 kPa | 5.85
100.4 kPa | 6.09
103.1 kPa | 6.18
105.7 kPa | 6.35
108.4 kPa | 6.54
113.7 kPa | 6.9
116.4 kPa | 6.95
124.2 kPa | 7.43
126.7 kPa | 7.66
132.1 kPa | 7.96
134.8 kPa | 8.17
137.3 kPa | 8.36
139.9 kPa | 8.56
142.5 kPa | 8.68
145.1 kPa | 8.84
147.8 kPa | 9.01
153 kPa | 9.28
155.7 kPa | 9.53
158.4 kPa | 9.61
163.7 kPa | 9.96
166.2 kPa | 10.08
168.8 kPa | 10.29
171.4 kPa | 10.52
174 kPa | 10.66
176.6 kPa | 10.78
179.2 kPa | 10.96
181.8 kPa | 11.08
184.4 kPa | 11.32
187 kPa | 11.51
194.7 kPa | 11.98
197.5 kPa | 12.12
202.8 kPa | 12.46
206.2 kPa | 12.64
209.6 kPa | 12.92
213 kPa | 13.17
216.4 kPa | 13.34
219.9 kPa | 13.6
223.3 kPa | 13.85
226.8 kPa | 14.01
230.3 kPa | 14.3
233.7 kPa | 14.54
244.3 kPa | 15.23
247.7 kPa | 15.41
251.2 kPa | 15.74
254.6 kPa | 15.88
258.1 kPa | 16.18
261.6 kPa | 16.37
265.1 kPa | 16.6
268.6 kPa | 16.83
275.3 kPa | 17.32
278.7 kPa | 17.49
282.2 kPa | 17.78
285.5 kPa | 17.97
289 kPa | 18.22
295.7 kPa | 18.58
299.1 kPa | 18.89
309 kPa | 19.54
313.2 kPa | 19.76
317.3 kPa | 20.15
321.7 kPa | 20.39
325.7 kPa | 20.7
329.8 kPa | 21.01
338 kPa | 21.54
342 kPa | 21.84
346.2 kPa | 22.19
350.3 kPa | 22.34
358.6 kPa | 23.03
362.7 kPa | 23.29
366.9 kPa | 23.58
375.1 kPa | 24.18
379.2 kPa | 24.47
383.4 kPa | 24.75
387.5 kPa | 25.04
391.7 kPa | 25.35
395.8 kPa | 25.63
399.9 kPa | 25.95
406.9 kPa | 26.42
416.6 kPa | 27.12
421.9 kPa | 27.51
426.1 kPa | 27.84
435.7 kPa | 28.54
441.2 kPa | 28.92
446.7 kPa | 29.28
452.1 kPa | 29.75
457.4 kPa | 30.13
461.6 kPa | 30.45
467 kPa | 30.79
472.4 kPa | 31.26
477.7 kPa | 31.6
488.4 kPa | 32.46
